Reference: patent publication US11229810B2, “Methods and systems for producing neuronal lesions using magnetic resonance and acoustic energy” (University of Virginia Patent Foundation, priority 2017, dated 2022)

Tested on: lateral aspect of the hippocampus
Experiment: MRgFUS + microbubbles + QA lesion study in rats, followed by T2-TSE MR imaging
Assay type: in vivo, Male Sprague Dawley rats
Details: rat, QA 0.06 mmol (1 ml of 10 mg/ml) intraperitoneally once per day for 4 days beginning 2 days prior to insonification, saline-treated animals normal
Description: An illustrative example is described below, concerning a study of techniques herein as applied to a particular subject. Male Sprague Dawley rats (e.g., 5-6 weeks of age (120-150 g)), were divided into two groups receiving the following treatments: 1) MRgFUS+microbubbles+saline (n=5), or 2) MRgFUS+microbubbles+QA (n=5). QA was dissolved in 0.1M PBS (10 mg/ml). Either 1 ml of the QA solution (0.06 mmol) or 1 ml of saline was injected intraperitoneally once per day for 4 days beginning 2 days prior to insonification. Phospholipid encapsulated microbubbles (mean size: ˜5 um; concentration: 6×10^8 microbubbles/ml; volume injected: 300 μl/kg) and Gadodiamide contrast (Omniscan, 0.2 ml/kg) were delivered via the tail vein just prior to sonification.
An acoustic energy delivery system was configured in a manner similar to that discussed above as in system 100 and in this illustrative example, the system included an MR-compatible, pre-focused, 8-element annular array comprising 1.5 MHz transducers 111 (e.g., having spherical radius=20 mm±2 mm, active diameter=25 mm [focal ratio=0.8]; an ultrasonic transducer with 80% electric-acoustic efficiency, which was connected to a phased array generator and RF power amplifier. An MR-compatible motorized positioning stage was used to move the transducer in the rostral-caudal and medial-lateral directions. […]

Structure (SMILES): O=C(O)c1cccnc1C(=O)O [QA, quinolinic acid]
- T2-TSE imaging appearance of brain, 24 hours post-insonification (24 hours post-insonification): exhibited hyperintensity in the area of insonification
- T2-TSE imaging appearance of brain, 7 days post-insonification (7 days post-insonification, no evidence of a lesion): exhibited signs of damage in the region of insonification
